Reference: ChEMBL document CHEMBL4482314, “Small molecule inhibitors of ghrelin O-acyltransferase” (2012)
The source made the active and inactive calls. The rule behind the calls is not given here. Where a SMILES comes first, the peptide text is derived from it. [ ]: non-standard residue; d: D form. The star is where a group is joined. Octanoyl = CCCCCCCC(=O)*; Dap = NC[C@H](N)C(=O)O

Experiments:
[1] = target: T1, Membrane-bound ghrelin O-acyltransferase MBOAT4 (Mus musculus) (UniProt P0C7A3); assay: Inhibition of His10-tagged mouse GOAT expressed in baculovirus infected Sf9 cells assessed as reduction in specific acyl transfer from tritiated-octanoyl CoA to recombinant His-tagged pro-ghrelin at 500 uM
T1 sequence (whole entry): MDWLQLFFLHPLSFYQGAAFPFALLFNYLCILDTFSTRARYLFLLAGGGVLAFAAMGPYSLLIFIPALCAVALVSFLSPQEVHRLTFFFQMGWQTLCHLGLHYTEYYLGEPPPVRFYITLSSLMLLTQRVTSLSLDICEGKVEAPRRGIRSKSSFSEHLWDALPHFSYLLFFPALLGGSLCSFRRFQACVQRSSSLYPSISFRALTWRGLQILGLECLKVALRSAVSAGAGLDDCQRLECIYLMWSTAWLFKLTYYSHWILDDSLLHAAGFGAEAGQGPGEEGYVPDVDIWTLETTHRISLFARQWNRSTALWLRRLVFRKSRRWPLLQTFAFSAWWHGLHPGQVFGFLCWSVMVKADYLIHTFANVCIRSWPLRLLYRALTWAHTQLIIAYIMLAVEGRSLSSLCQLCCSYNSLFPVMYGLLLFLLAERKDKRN

[2] = target: T1, Membrane-bound ghrelin O-acyltransferase MBOAT4 (Mus musculus); assay: Inhibition of His10-tagged mouse GOAT expressed in baculovirus infected Sf9 cells assessed as reduction in specific acyl transfer from tritiated-octanoyl CoA to recombinant His-tagged pro-ghrelin at <500 uM
[3] = target: T1, Membrane-bound ghrelin O-acyltransferase MBOAT4 (Mus musculus); assay: Inhibition of His10-tagged mouse GOAT expressed in baculovirus infected Sf9 cells assessed as reduction in specific acyl transfer from tritiated-octanoyl CoA to recombinant His-tagged pro-ghrelin
[4] = target: T1, Membrane-bound ghrelin O-acyltransferase MBOAT4 (Mus musculus); assay: Inhibition of His10-tagged mouse GOAT expressed in baculovirus infected Sf9 cells assessed as reduction in specific acyl transfer from tritiated-octanoyl CoA to recombinant His-tagged pro-ghrelin at 100 uM
[5] = target: T2, Membrane-bound ghrelin O-acyltransferase MBOAT4 (Homo sapiens) (UniProt Q96T53); assay: Inhibition of GOAT (unknown origin) expressed in intact rat INS1 cells co-expressing pre-proghrelin incubated for 24 hrs; format: cell-based
T2 sequence (whole entry): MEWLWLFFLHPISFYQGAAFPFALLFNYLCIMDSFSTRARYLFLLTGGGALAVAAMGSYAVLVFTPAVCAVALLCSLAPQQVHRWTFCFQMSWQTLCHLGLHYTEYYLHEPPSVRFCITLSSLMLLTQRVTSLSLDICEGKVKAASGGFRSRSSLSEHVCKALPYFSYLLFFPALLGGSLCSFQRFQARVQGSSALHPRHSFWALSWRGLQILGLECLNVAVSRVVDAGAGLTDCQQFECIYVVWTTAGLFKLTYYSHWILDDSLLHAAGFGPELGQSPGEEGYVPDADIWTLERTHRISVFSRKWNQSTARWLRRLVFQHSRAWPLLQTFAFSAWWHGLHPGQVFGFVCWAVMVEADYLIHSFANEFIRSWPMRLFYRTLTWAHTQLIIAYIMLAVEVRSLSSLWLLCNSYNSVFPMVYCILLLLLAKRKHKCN

Compound: CCCCCCCC(O)CC[C@H](NC(=O)C(C)(C)CO)C(=O)N[C@H](COC)Cc1ccccc1 (some centres not stated)
- inhibition [1]: Active
- inhibition [2]: Active

Compound: CCCCCCC[S+]([O-])CC[C@H](NC(=O)OCc1ccccc1)C(=O)OC (some centres not stated)
- inhibition [3]: Dose-dependent effect

Compound: CCCCCCCC(C)(O)/C=C/[C@H](NC(=O)OCc1ccccc1)C(=O)OC (some centres not stated)
- inhibition [3]: Dose-dependent effect
- inhibition [4]: Active
- inhibition [5]: Active

Compound: CCCCCCCC(O)/C=C/[C@H](NC(=O)OCc1ccccc1)C(=O)OC (some centres not stated)
- inhibition [1]: Active
- inhibition [2]: Active
- inhibition [4]: Active

Compound: CCCCCCCC(C)(O)/C=C/[C@@H](NC(=O)OCc1ccccc1)C(=O)OC (some centres not stated)
- inhibition [1]: Active
- inhibition [3]: Active

Compound: CCCCCCCC(O)CC[C@H](NC(=O)C(C)(C)CO)C(=O)OC (some centres not stated)
- inhibition [1]: Active

Compound: CCCCCCCC(O)CC[C@H](NC(=O)OCc1ccccc1)C(=O)N[C@H](COC)Cc1ccccc1 (some centres not stated)
- inhibition [4]: Active

Compound: CCC(C)(O)/C=C/[C@H](NC(=O)OCc1ccccc1)C(=O)OC (some centres not stated)
- inhibition [3]: inactive

Compound: CCCCCCCC(C)(O)/C=C/CNC(=O)OCc1ccccc1 (configuration not stated)
- inhibition [3]: Active

Compound: CCCCCCCC(C)(O)C/C=C(/NC(=O)OCc1ccccc1)C(=O)NC(C)C (configuration not stated)
- inhibition [3]: Active

Compound: CCCCCCCC(C)(O)/C=C/[C@H](NC(=O)C(C)(C)CO)C(=O)OC (some centres not stated)
- inhibition [3]: inactive

Compound: CCCCCCCC(=O)NC[C@H](NC(=O)[C@H](CO)NC(=O)CN)C(=O)N[C@@H](Cc1ccccc1)C(=O)N[C@@H](CC(C)C)C(N)=O (H-GS[Dap](Octanoyl)FL-NH2)
- inhibition [3]: Dose-dependent effect

Compound: CCCCCCCC(=O)CC[C@H](NC(=O)OCc1ccccc1)C(=O)OC
- inhibition [4]: Active

Compound: CCCCCCCC(C)(O)/C=C/[C@H](NC(=O)OCc1ccccc1)C(=O)NC(C)C (some centres not stated)
- inhibition [3]: Active

Compound: CCCCCCCC(=O)NC[C@H](NC(=O)OCc1ccccc1)C(=O)OC
- inhibition [3]: inactive

Compound: CCCCCCCC(C)(O)/C=C/[C@H](NC(=O)C(C)(C)CO)C(=O)N[C@@H](Cc1ccccc1)C(=O)N[C@@H](CC(C)C)C(N)=O (some centres not stated)
- inhibition [3]: Active
